Test system: Oryzias latipes
Assay: Ichthyotoxicity against Oryzias latipes at 20 ug/mL
Assay type: organism-based
Conditions: in vivo

SMILES: C/C1=C/C[C@@H](C(C)C)/C=C/[C@](C)(O)CC/C=C(\C)CC(=O)C1 [SARTONE E]
- Activity: Non-toxic
